Experimental data taken from patent US20060128997A1, “New method for the preparation of 1,5-bis(4-hydroxy-3-metoxy-phenyl)-penta-1,4-dien-3-one and derivatives with antitumoral properties” (priority 2003, published 2006).
Where “and” joins values, the source holds several entries; their conditions need not be identical. Equal values may be shown once. Entries after “also recorded” stand apart in the source; their conditions may differ.

Assays:
[1] = test system: HT-1080; conditions: literature values (Banskota, Kimoto); unit not given; cited from earlier work
[2] = test system: Colon L5-26; conditions: literature values (Banskota, Kimoto); unit not given; cited from earlier work
[3] = test system: PC-3 (Prostate tumor); test: Antiproliferate test in tumoral human cells, sulforrodamina B essay; type: cell-based; conditions: PC-03
Method: (§1) Methodology utilized to perform the antitumoral tests:
(§2) Report of the Antiproliferate Test in Tumoral Human Cells with the Sulforrodamina B Essay
(§3) The cell lines used in the essays, described in the table 1, were maintained in recipients of 25 cm^2 (Nunc®), with 5 mL of culture medium RPMI 1640 supplemented with 5% bovine foetal serum (RPMI/SFB), at 37° C. in atmosphere of 5% of CO2 and 100% of humidity.
(§4) […] of cells in medium RPMI/SFB with 50 μg/mL of Gentamicin were inoculated in its respectives densities of inoculation, in plates of 96 compartments and incubated for 24 hours at 37° C. in atmosphere of 5% of CO2 and 100% of humidity.
(§5) After 24 hours, […] of the test substance were added in the following concentrations of 250; 25; 2.5; 0.2 μg/mL diluted in RPMI/SFB/gentamicin. In this moment the reading of one plate was performed for the determination of the T0 (cell control in the moment of the adding the samples). The other plates were incubated for 48 hours After this period the experiment was paused by adding the trichlorine acetic acid to further determine the protein content by means of […] essay with the sulforrodamina B.
(§6) The stocked solutions were developed by diluting the samples in dimethyl sulfoxide (DMSO) in the concentration of 0.1 g/mL. That solution was diluted by 400 times in RPMI/SFB/gentamicina to be added in the plates of 96 compartments being obtained so the a ideal concentration of DMSO (Skehan e cols. 1990).
(§7) At the end of the test, the plates of 96 compartments were centrifuged for 3 minutes at 2000 rpm, and they were fixed with 50 μL of a solution at 50% of trichloroacetic acid (TCA) at 4° C. To complete the cellular fixation, the plates were incubated for 1 hour at 4° C.
(§8) The plates were submitted to four consecutive washes with distillated water to remore the residues of TCA, medium, SFB and secondary metabolic and maintained at room temperature until the complete drying.
(§9) A coloration was performed by the adding of 50 μL SRB at 0.4% (weight/volume) diluted in acetic acid at 1%, and maintained at 4° C. for 30 minutes. Further, they were washed by 4 consecutive times with a solution of acetic acid 1%. The residue of the washing of the solution was removed and the plates were dried again at room temperature. The colorant linked to the cellular protein was diluted with a solution of Trizma Base (Sigma®) in concentration of […] and pH 10.5 for 5 minutes in ultrasonic bath. The spectrophotometric of absorbancy reading was performed in 560 nm in a micro plates lector (Labsystems Labsystems Multiskan® MCC/340).
(§10) The absorbancy averages were assessed having discounted its respective nulls and by means of the formula shown below was determined the growth inhibition (IC) of each tested sample.
(§11) If T≧T0 but <C, the drug was cytostatic and the formula used is 100×[(T−To)/(C−T0)]
(§12) If T<T0 the drug was cytotoxic and the formula used is […]
(§13) Considering that T is the absorbency average of the treated cell C is the cell control and T0 is the cell control in the addition day.
(§14) The obtained result was subtracted from 100% so obtaining the percentage of growth inhibition. The samples were considered actives since they presented growth inhibition dependant dose higher than 50% and selective lineage, that is, the preferential activity for only one type of tumoral cell or with cytostatic and/or killer cell effect well distinguished among the cell lines.
(§15) All the assays were performed in triplicates so that the presented results make reference to a representative experiment. The standard deflection from the average was always lower than 5%.

[4] = test system: OVCAR-3 (Ovary tumor); test: as above; type: cell-based
Method: as §1, §2, §3, §4, §5, §6, §7, §8, §9, §10, §11, §12, §13, §14, §15

[5] = test system: all cell lines (nine different types of human cancer); test: Antiproliferate test, sulforrodamina B essay, whole panel of cell lines; type: cell-based
Method: as §1, §2, §3, §4, §5, §6, §7, §8, §9, §10, §11, §12, §13, §14, §15

[6] = Acute toxicity test (LD50, body weight, deaths); type: in vivo, albinic swiss mouses; conditions: for Initial Weight, Average ± dpm / Initial Weight, single animal: beginning of the test; for Final Weight, Average ± dpm / Final Weight, single animal: ending of the test
Method: Also a toxicological test with the sample denominated 37 compound (Acute Toxicity, LD50, via intraperitoneal).
Methodology utilized to perform the toxicological tests:
10 albinic swiss mouses are used, of the male gender, weighting approximately 25 g, for each of the treated groups and control;
Adaptation period: the animals are maintained in the tests room at least for 07 days before the beginning of the essay;
The animals are submitted to fast 12 hours before administering the test substance, done by gavage, at the time the animal's body weight is listed.
After the administration the animals are maintained in observation for a minimum period of 14 days.
The number of death animals for each one of the doses is listed and the LD50 is assessed by Litchfield and Wilcoxon's (1949) method and the animal's body weight is listed at the end of the acute toxicity test.

[7] = test system: UACC62 (Melanoma); test: Antiproliferate test in tumoral human cells, sulforrodamina B essay; type: cell-based
Method: as §1, §2, §3, §4, §5, §6, §7, §8, §9, §10, §11, §12, §13, §14, §15

[8] = test system: MCF7 (Normal mamma tumor); test: as above; type: cell-based
Method: as §1, §2, §3, §4, §5, §6, §7, §8, §9, §10, §11, §12, §13, §14, §15

[9] = test system: NCIADR (Mamma tumor which expresses the phenotype resistance against multiple drugs); test: as above; type: cell-based; conditions: for growth inhibition of the Mama NCI-ADR cell line, in words: resistance against multiple drugs
Method: as §1, §2, §3, §4, §5, §6, §7, §8, §9, §10, §11, §12, §13, §14, §15

[10] = test system: NCI460 (Lung tumor); test: as above; type: cell-based
Method: as §1, §2, §3, §4, §5, §6, §7, §8, §9, §10, §11, §12, §13, §14, §15

[11] = cited from earlier work

Structure (SMILES): CC(C)=CCc1cc(C=CC(=O)O)cc(CC=C(C)C)c1O [Compound 3, 3,5-diprenyl-4-hydroxycinnamic acid]
- Cytotoxicity HT-1080 [1]: 45.47
- Cytotoxicity Colon L5-26 [2]: 59.32

Structure (SMILES): CC(C)=CCc1cc(C=CC(=O)O)cc2c1OC(C)(C)C(O)C2 (centres unmarked) [Compound 1, 3-hydroxy-2,2-dimethyl-8-prenylchromane-6-propenoic acid]
- Cytotoxicity HT-1080 [1]: 71.53
- Cytotoxicity Colon L5-26 [2]: 77.07

Structure (SMILES): COc1ccc(C=CC(=O)C=Cc2ccc(OC)c(OC)c2)cc1OC [HBM1, 1,5-Bis(3,4-dimetoxyphenyl)-penta-1,4-dien-3-one]
- concentration with cytotoxic activity (cellular death) [3]: 250000 ng/mL
- concentration with cytotoxic activity (cellular death) [4]: 250000 ng/mL
- concentration from which cytostatic activity (growth inhibition) is presented ([5]; all cell lines): ≥ 0.25 µg/mL

Structure (SMILES): COc1cc(C=CC(=O)C=Cc2ccc(O)c(OC)c2)ccc1O [Compound 37, 1,5-bis(4-hydroxy-3-methoxyphenyl)-penta-1,4-dien-3-one]
- Deaths (n), single animal ([6]; 2.5 g/Kg via intraperitoneal): 0
- Initial Weight, Average ± dpm ([6]; 2.5 g/Kg via intraperitoneal): 24.60 ± 2.51 g
- Initial Weight, single animal ([6]; 2.5 g/Kg via intraperitoneal): 24.5 g and 25.4 g (2×) and 24.1 g and 26.6 g and 24.8 g and 22.5 g and 29.7 g and 22.4 g and 20.6 g
- Final Weight, Average ± dpm ([6]; 2.5 g/Kg via intraperitoneal): 27.88 g
- Final Weight, single animal ([6]; 2.5 g/Kg via intraperitoneal): 26.4 g and 28.0 g and 28.6 g and 27.4 g and 29.0 g and 27.8 g and 25.0 g and 31.2 g and 25.4 g and 22.8 g
- Deaths (n), single animal ([6]; 3.0 g/Kg via intraperitoneal): 0 (9×) and 1
- Initial Weight, Average ± dpm ([6]; 3.0 g/Kg via intraperitoneal): 25.47 ± 2.43 g
- Initial Weight, single animal ([6]; 3.0 g/Kg via intraperitoneal): 28.3 g and 30.9 g and 24.6 g and 25.4 g and 25.1 g and 23.2 g and 23.6 g (2×) and 26.0 g and 24.0 g
- Final Weight, Average ± dpm ([6]; 3.0 g/Kg via intraperitoneal): 27.81 g
- Final Weight, single animal ([6]; 3.0 g/Kg via intraperitoneal): 30.3 g and 32.5 g and 25.9 g and 28.0 g and 27.9 g and 25.6 g and 26.0 g and 25.8 g and 28.3 g and Death
- Deaths (n), single animal ([6]; 4.0 g/Kg via intraperitoneal): 0 (9×) and 1
- Initial Weight, Average ± dpm ([6]; 4.0 g/Kg via intraperitoneal): 26.41 ± 3.52 g
- Initial Weight, single animal ([6]; 4.0 g/Kg via intraperitoneal): 29.8 g and 25.5 g and 33.2 g and 25.9 g and 26.3 g and 28.9 g and 26.7 g and 23.3 g (2×) and 21.2 g
- Final Weight, Average ± dpm ([6]; 4.0 g/Kg via intraperitoneal): 28.98 g
- Final Weight, single animal ([6]; 4.0 g/Kg via intraperitoneal): 32.5 g and 26.9 g and 35.9 g and 28.9 g and 29.0 g and 30.2 g and 28.0 g and 25.9 g and 23.5 g and Death
- Deaths (n), single animal ([6]; 5.0 g/Kg via intraperitoneal): 0 (8×) and 1 (2×)
- Initial Weight, Average ± dpm ([6]; 5.0 g/Kg via intraperitoneal): 23.68 ± 1.42 g
- Initial Weight, single animal ([6]; 5.0 g/Kg via intraperitoneal): 24.9 g and 21.0 g and 25.4 g and 22.2 g and 24.0 g and 23.8 g and 22.5 g and 23.5 g and 24.2 g and 25.3 g
- Final Weight, Average ± dpm ([6]; 5.0 g/Kg via intraperitoneal): 25.86 g
- Final Weight, single animal ([6]; 5.0 g/Kg via intraperitoneal): 25.9 g (2×) and 24.0 g and 27.8 g and 25.6 g and 27.0 g and 25.8 g and 24.9 g and Death (2×)
- toxicity classification according to Loomis, in words ([6]; from LD50 (5.0-15 g/Kg = practically nontoxic)): practically nontoxic
- LD50 at 14 days ([6]; male, Swiss albino, mouse, in vivo, ip, acute toxicity, via intraperitoneal, linear regression, 14 days of observation): 8540 mg/kg
- concentration with cytotoxic activity (cellular death) [7]: ≥ 250 ng/mL
- concentration with cytotoxic activity (cellular death) [8]: ≥ 250 ng/mL
- concentration with cytotoxic activity (cellular death) [9]: ≥ 250 ng/mL
- growth inhibition of the Mama NCI-ADR cell line, in words ([9]; listed as 37/01): strong cytostatic activity
- growth inhibition of the Mama NCI-ADR cell line, in words ([9]; listed as our product): inhibited the growth
- concentration with cytotoxic activity (cellular death) [10]: ≥ 250 ng/mL
- cytostatic / antiproliferate activity (growth inhibition), in words ([5]; all cell lines): cytostatic activity (growth inhibition) for all cell lines
- concentration from which cytotoxic / killer cell activity (cellular death) is presented ([5]; all cell lines of the panel): ≥ 250 ng/mL
- cytostatic / antiproliferate activity (growth inhibition), in words ([5]; all cell lines, listed as 37/01): cytostatic activity (growth inhibition) in the concentrations evaluated

Structure (SMILES): COc1cccc2c1C(=O)c1c(O)c3c(c(O)c1C2=O)C[C@@](O)(C(=O)CO)C[C@@H]3O[C@H]1C[C@H](N)[C@H](O)[C@H](C)O1 [Doxorubicin, reference compound]
- toxicity, in words ([11]; in vivo): extremely toxic
- LD50 ([11]; species and route not given): 20 mg/kg
- growth inhibition of the Mama NCI-ADR cell line, in words [9]: does not inhibit the growth; also recorded: did not inhibit the growth
